Values after ≈ are worked out from the molar mass of the structure shown. Read-outs that look alike come from different tables or passages of the source.
Key:
[1] = test system: E. coli (ciprofloxacin resistant clinical isolate); test: microbe, parasite or virus in culture; type: cell-based, Escherichia coli; settings: Escherichia coli
Description: (§1) 1.1.1 In vitro experiments
(§2) Determination of Minimal inhibitory concentrations (MIC)
(§3) Approved Standard M07-A9.1
(§4) CFU mL-1. […] Albicidin and […]
(§5) and serially diluted in DMSO (100%). […]
(§6) in 0.1 N HCL, respectively.
(§7) One row of each well plate served as a […]
(§8) sterility control (only MHB II-media). […]
(§9) adding 5 µL DMSO to several wells. […]
(§10) for growth inhibition by naked eye.
(§11) Microorganisms and Cell Cultures (DSMZ): […]
(§12) Dr. Werner (Robert-Koch-Institut, Wernigerode, Germany): […]

[2] = test system: E. coli (ciprofloxacin susceptible clinical isolate); test: MIC, extended panel; type: cell-based; settings: Escherichia coli
Description: as §1, §2, §3, §4, §5, §6, §7, §8, §9, §10, §11, §12

[3] = test system: Salmonella Kentucky (ciprofloxacin susceptible clinical isolate); test: MIC, extended panel; type: cell-based; settings: Salmonella enterica
Description: as §1, §2, §3, §4, §5, §6, §7, §8, §9, §10, §11, §12

[4] = test system: K. pneumoniae (ciprofloxacin resistant clinical isolate); test: microbe, parasite or virus in culture; type: cell-based; settings: Klebsiella pneumoniae
Description: as §1, §2, §3, §4, §5, §6, §7, §8, §9, §10, §11, §12

[5] = test system: Salmonella Kentucky (ciprofloxacin resistant clinical isolate); test: microbe, parasite or virus in culture; type: cell-based; settings: Salmonella enterica
Description: as §1, §2, §3, §4, §5, §6, §7, §8, §9, §10, §11, §12

[6] = test system: K. pneumoniae (ciprofloxacin susceptible clinical isolate); test: MIC, extended panel; type: cell-based, Klebsiella pneumoniae; settings: Klebsiella pneumoniae
Description: as §1, §2, §3, §4, §5, §6, §7, §8, §9, §10, §11, §12

[7] = test system: S. aureus (ciprofloxacin resistant clinical isolate); test: microbe, parasite or virus in culture; type: cell-based, Staphylococcus aureus; settings: Staphylococcus aureus
Description: as §1, §2, §3, §4, §5, §6, §7, §8, §9, §10, §11, §12
(§13) for the following 11 pathogenic isolates: […]

[8] = test system: S. aureus (ciprofloxacin susceptible clinical isolate); test: MIC, extended panel; type: cell-based; settings: Staphylococcus aureus
Description: as §1, §2, §3, §4, §5, §6, §7, §8, §9, §10, §11, §12, §13

[9] = test system: A. baumannii (ciprofloxacin resistant isolate); test: microbe, parasite or virus in culture; type: cell-based, Acinetobacter baumannii; settings: Acinetobacter baumannii
Description: as §1, §2, §3, §4, §5, §6, §7, §8, §9, §10, §11, §12, §13

[10] = test system: E. faecium (ciprofloxacin resistant clinical isolate); test: microbe, parasite or virus in culture; type: cell-based; settings: Enterococcus faecium
Description: as §1, §2, §3, §4, §5, §6, §7, §8, §9, §10, §11, §12, §13

[11] = test system: P. aeruginosa (ciprofloxacin resistant clinical isolate); test: microbe, parasite or virus in culture; type: cell-based; settings: Pseudomonas aeruginosa
Description: as §1, §2, §3, §4, §5, §6, §7, §8, §9, §10, §11, §12, §13

[12] = test system: P. aeruginosa (ciprofloxacin susceptible clinical isolate); test: MIC, extended panel; type: cell-based, Pseudomonas aeruginosa; settings: Pseudomonas aeruginosa
Description: as §1, §2, §3, §4, §5, §6, §7, §8, §9, §10, §11, §12, §13

in vitro = settings: plasma, pH 7.4
Description: Determination of plasma stability
Human and murine plasma aliquots (Sigma-Aldrich, Taufkirchen, Germany) were thawed and subsequently centrifuged at 3000 rpm for 10 min at 4°C. Resulting supernatant was diluted in the same volume of phosphate buffer (pH 7.4) to obtain a plasma concentration of 50% (v/v). Stock solutions of […]
concentration of 20 µM (5% DMSO). Following incubation at 37°C ice-cold methanol containing 30% […]
were centrifuged at 4000 rpm for 20 min at 4°C and 100 µL of supernatant were directly transferred to a fresh MS-vial. Samples were analyzed by LC/MS-MS experiments. Quantification of remaining compounds was performed by an external calibration curve of standard solutions in the range of […]

DNA gyrase = settings: read-out: half maximum inhibitory concentration (IC50); cited from earlier work
physchem = settings: 20 °C, kinetic from dmso stock
[13] = test system: E. faecium (ciprofloxacin susceptible clinical isolate); test: microbe, parasite or virus in culture; settings: Enterococcus faecium
E. coli DSM 1116 = test: MIC determination (broth microdilution); type: cell-based, Escherichia coli; settings: Escherichia coli, DSM1116
Description: as §1, §2, §3, §4, §5, §6, §7, §8, §9, §10, §11

S. Typhimurium TA100 = test: MIC determination (broth microdilution); type: cell-based, Salmonella typhimurium; settings: Salmonella enterica; S. Typhimurium TA100; read-out: MIC
Description: as §1, §2, §3, §4, §5, §6, §7, §8, §9, §10, §11

B. subtilis DSM 10 = test: MIC determination (broth microdilution); type: cell-based; settings: Bacillus subtilis, DSM10; B. subtilis DSM 10; read-out: MIC
Description: as §1, §2, §3, §4, §5, §6, §7, §8, §9, §10, §11

E. coli BW25113 = test: MIC determination (broth microdilution); type: cell-based; settings: Escherichia coli
Description: as §1, §2, §3, §4, §5, §6, §7, §8, §9, §10, §11

M. luteus DSM1790 = test: MIC determination (broth microdilution); type: cell-based, Micrococcus luteus; settings: M. luteus DSM1790
Description: as §1, §2, §3, §4, §5, §6, §7, §8, §9, §10, §11

M. phlei DSM 750 = test: MIC determination (broth microdilution); type: cell-based, Mycobacterium phlei; settings: Mycolicibacterium phlei, DSM750; M. phlei DSM 750; read-out: MIC
Description: as §1, §2, §3, §4, §5, §6, §7, §8, §9, §10

[14] = test system: E. coli DSM 1116 + 50% Human Serum; test: MIC determination in presence of 50% human serum; type: cell-based; settings: Escherichia coli, DSM1116; E. coli DSM 1116 + 50% Human Serum; read-out: MIC
Text: This investigation was completed by assessment of the antibacterial activity in presence of human plasma (50%) (Table 1), since high plasma protein binding can severely impair antibacterial activity and thus efficacy.
as §1, §2, §3, §4, §5, §6, §7, §8, §9, §10, §11

E. coli DNA gyrase = target: T1, E. coli DNA gyrase (Escherichia coli, UniProt P0AES4+P0AES6); test: E. coli gyrase supercoiling inhibition assay; type: biochemical; parameters: key: ↑: for stronger inhibition; ≈: for equal inhibition; ↓: for diminished inhibition compared to albicidin 1; settings: constant concentration of 45 nM, compared to albicidin 1
T1 construct: purchased inspiralis Limited, Norwich, UK
T1 sequence (P0AES4 whole entry, one chain of several): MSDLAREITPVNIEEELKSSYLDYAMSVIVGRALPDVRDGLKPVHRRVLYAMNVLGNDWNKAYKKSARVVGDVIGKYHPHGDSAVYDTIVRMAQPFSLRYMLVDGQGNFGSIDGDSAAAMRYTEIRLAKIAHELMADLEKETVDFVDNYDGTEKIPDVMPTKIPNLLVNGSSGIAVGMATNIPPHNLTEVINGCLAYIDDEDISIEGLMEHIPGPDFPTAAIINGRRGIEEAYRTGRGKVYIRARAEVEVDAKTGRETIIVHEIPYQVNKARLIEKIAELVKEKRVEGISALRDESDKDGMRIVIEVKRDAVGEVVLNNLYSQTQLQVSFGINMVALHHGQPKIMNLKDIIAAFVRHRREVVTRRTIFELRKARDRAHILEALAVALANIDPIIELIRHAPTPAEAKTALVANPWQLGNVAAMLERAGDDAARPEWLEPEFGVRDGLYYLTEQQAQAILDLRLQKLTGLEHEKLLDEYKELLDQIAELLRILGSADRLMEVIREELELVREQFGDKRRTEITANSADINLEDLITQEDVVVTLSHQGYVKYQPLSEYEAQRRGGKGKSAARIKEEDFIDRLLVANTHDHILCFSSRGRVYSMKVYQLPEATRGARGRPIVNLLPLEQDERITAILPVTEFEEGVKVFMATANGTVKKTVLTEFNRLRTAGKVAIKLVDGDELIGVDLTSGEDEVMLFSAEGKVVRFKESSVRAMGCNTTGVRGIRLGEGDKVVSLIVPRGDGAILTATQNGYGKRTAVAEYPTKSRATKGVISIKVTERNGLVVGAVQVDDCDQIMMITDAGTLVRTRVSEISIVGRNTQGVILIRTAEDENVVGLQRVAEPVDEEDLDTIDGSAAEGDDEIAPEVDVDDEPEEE
Description: Escherichia coli Gyrase Supercoiling Inhibition Assay
loaded on an agarose gel.
2-15. […] Addition of DNA
All derivatives were tested at a concentration of […]

[15] = E. coli DSM 1116, read-out: MIC
[16] = Micrococcus luteus, read-out: MIC

Compound | MIC (E. coli DSM 1116; [15]) [µg/mL] | MIC (S. Typhimurium TA100) [µg/mL] | MIC (B. subtilis DSM 10) [µg/mL] | MIC (E. coli BW25113) [µg/mL] | MIC (M. luteus DSM1790; [16]) [µg/mL] | MIC (M. phlei DSM 750) [µg/mL] | MIC [14] [µg/mL] | E. coli gyrase inhibition (E. coli DNA gyrase) | further results
COc1c(NC(=O)c2ccc(NC(=O)c3ccc(NC(=O)[C@H](CC#N)NC(=O)c4ccc(NC(=O)/C(C)=C/c5ccc(O)cc5)cc4)cc3)c(OC)c2O)ccc(C(=O)O)c1O [Compound 1, albicidin] | – | – | – | – | – | – | – | – | MIC [1]: 0.125 µg/mL (≈ 0.148 µM); MIC [2]: 0.031 µg/mL (≈ 0.0368 µM); MIC [3]: 0.063 µg/mL (≈ 0.0747 µM); MIC [4]: ≥ 128 µg/mL; MIC [5]: 0.25 µg/mL (≈ 0.297 µM); MIC [6]: ≥ 128 µg/mL; MIC [7]: 4 µg/mL (≈ 4.75 µM); MIC [8]: 2 µg/mL (≈ 2.37 µM); MIC [9]: 2 µg/mL (≈ 2.37 µM); MIC [10]: 16 µg/mL (≈ 19 µM); MIC [11]: 2 µg/mL (≈ 2.37 µM); MIC [12]: 1 µg/mL (≈ 1.19 µM); half-life at 20 µM (in vitro; human): 60 min; half-life at 20 µM (in vitro; mouse): 30 min; IC50 (DNA gyrase): 40 nM; solubility at 20 h (physchem; pH 7.4, aqueous with cosolvent or surfactant or cyclodextrin): 5.53 µg/mL (≈ 6.56 µM); solubility kinetic at 20 h (physchem; pH 7.5, aqueous with cosolvent or surfactant or cyclodextrin): 5.53 µg/mL (≈ 6.56 µM); MIC [13]: 0.25 µg/mL (≈ 0.297 µM)
COc1c(NC(=O)c2ccc(NC(=O)c3ccc(NC(=O)[C@H](Cc4c[nH]nn4)NC(=O)c4ccc(NC(=O)/C(C)=C/c5ccccn5)cc4)cc3)c(OC)c2O)ccc(C(=O)O)c1O [Compound 3] | 0.25 (≈ 0.287 µM) | 0.125 (≈ 0.144 µM) | 4 (≈ 4.6 µM) | 0.5 (≈ 0.575 µM) | 32 (≈ 36.8 µM) | 64 (≈ 73.6 µM) | 8 | ↓ | –
COc1c(NC(=O)c2ccc(NC(=O)c3ccc(NC(=O)[C@H](Cc4c[nH]nn4)NC(=O)c4ccc(NC(=O)/C(C)=C/c5cccnc5)cc4)cc3)c(OC)c2O)ccc(C(=O)O)c1O [Compound 4] | – | 0.125 (≈ 0.144 µM) | 2 (≈ 2.3 µM) | 0.5 (≈ 0.575 µM) | 32 (≈ 36.8 µM) | 32 (≈ 36.8 µM) | 8 | ↓ | MIC (E. coli DSM 1116): 0.125 µg/mL (≈ 0.144 µM)
COc1c(NC(=O)c2ccc(NC(=O)c3ccc(NC(=O)[C@H](Cc4c[nH]nn4)NC(=O)c4ccc(NC(=O)/C(C)=C/c5ccc(O)cc5)cn4)cc3)c(OC)c2O)ccc(C(=O)O)c1O [Compound 5] | 0.031 (≈ 0.035 µM) | 0.031 (≈ 0.035 µM) | 0.25 (≈ 0.282 µM) | 0.031 (≈ 0.035 µM) | 0.5 (≈ 0.564 µM) | 4 (≈ 4.52 µM) | 2 | ↑ | –
COc1c(NC(=O)c2ccc(NC(=O)c3ccc(NC(=O)[C@H](Cc4c[nH]nn4)NC(=O)c4ccc(NC(=O)/C(C)=C/c5ccc(O)cc5)nc4)cc3)c(OC)c2O)ccc(C(=O)O)c1O [Compound 6] | 0.016 (≈ 0.0181 µM) | 0.016 (≈ 0.0181 µM) | 0.5 (≈ 0.564 µM) | 0.063 (≈ 0.0711 µM) | 4 (≈ 4.52 µM) | 4 (≈ 4.52 µM) | 1 | ↓ | –
COc1c(NC(=O)c2ccc(NC(=O)c3ccc(NC(=O)[C@H](Cc4c[nH]nn4)NC(=O)c4ccc(NC(=O)/C(C)=C/c5ccc(O)cc5)cc4)cc3)cn2)ccc(C(=O)O)c1O [Compound 9] | 0.031 (≈ 0.0369 µM) | 0.031 (≈ 0.0369 µM) | 1 (≈ 1.19 µM) | 0.031 (≈ 0.0369 µM) | 1 (≈ 1.19 µM) | 1 (≈ 1.19 µM) | ≥ 8 | ↓ | –
COc1c(NC(=O)c2ccc(NC(=O)c3ccc(NC(=O)[C@H](Cc4c[nH]nn4)NC(=O)c4ccc(NC(=O)/C(C)=C/c5ccc(O)cc5)cc4)cc3)nc2)ccc(C(=O)O)c1O [Compound 10] | 0.063 (≈ 0.075 µM) | 0.016 (≈ 0.0191 µM) | 2 (≈ 2.38 µM) | 0.063 (≈ 0.075 µM) | 32 (≈ 38.1 µM) | 2 (≈ 2.38 µM) | 2 | ↓ | MIC (M. luteus DSM1790): 32.0 µg/mL (≈ 38.1 µM)
